PubChem BioAssay AID310 (DTP/NCI, 2004)
Values joined by “and” are separate entries in the source; they are usually repeats but may differ in a detail not shown here. Identical values can stand only once. Records with an inconclusive call do not appear. Where a SMILES comes first, the peptide text is derived from it. [ ]: non-standard residue; d: D form. Ac5c = NC1(C(=O)O)CCCC1

Test system: C3AKF1 mice, osteogenic sarcoma HE10734 s.c., tumor weight T/C
Assay: NCI In Vivo Anticancer Drug Screen. Data for tumor model Osteogenic Sarcoma HE 10734 (subcutaneous) in C3AKF1 (CHKRF1) mice
Settings: endpoint: mean tumor weight, schedule: Q01DX010 (ip), higher = larger tumour
Experimental: The antitumor activity of compounds was measured in mice bearing transplantable tumors. Survival or tumor size were measured and the results are expressed as the measurement made in the treated group (T) divided by the measurement made in the vehicle treated control group (C). The tumor model used in this assay is Osteogenic Sarcoma HE 10734 (subcutaneous) in C3AKF1 (CHKRF1) mice

[1] = dose: 75.0 mg/kg/injection, vehicle: saline
[2] = dose: 150.0 mg/kg/injection, vehicle: saline
[3] = dose: 100.0 mg/kg/injection, vehicle: saline
[4] = dose: 62.0 mg/kg/injection, vehicle: saline
[5] = dose: 125.0 mg/kg/injection, vehicle: saline
[6] = dose: 12.0 mg/kg/injection, vehicle: saline
[7] = dose: 25.0 mg/kg/injection, vehicle: saline
[8] = dose: 50.0 mg/kg/injection, vehicle: saline

## O=c1[nH]cnc2n[nH]nc12
[1]
  T/C: 80 % of control
[2]
  T/C: 103 % of control
dose: 300.0 mg/kg/injection, vehicle: saline
  T/C: 87 % of control
dose: 600.0 mg/kg/injection, vehicle: saline
  T/C: 99 % of control

## NCC(=O)NC1(C(=O)O)CCCC1 (H-Gly-[Ac5c]-OH)
dose: 66.0 mg/kg/injection, vehicle: saline
  T/C: 79 % of control
[3]
  T/C: 58 % of control
[2]
  T/C: 35 % of control
dose: 225.0 mg/kg/injection, vehicle: saline
  T/C: 20 % of control and 27 % of control

## O=[N+]([O-])c1ccccc1CSc1ncnc2nc[nH]c12
[4]
  T/C: 106 % of control
[5]
  T/C: 81 % of control
dose: 250.0 mg/kg/injection, vehicle: saline
  T/C: 28 % of control

## C=CCn1c(=O)n(CC=C)c(=O)n(CC=C)c1=O
dose: 31.0 mg/kg/injection, vehicle: saline
  T/C: 84 % of control
[4]
  T/C: 94 % of control
[5]
  T/C: 69 % of control
dose: 375.0 mg/kg/injection, vehicle: saline
  T/C: 31 % of control

## O=P(N1CC1)(N1CC1)N1CC1
dose: 0.5 mg/kg/injection, vehicle: carboxymethylcellulose (CMC)
  T/C: 104 % of control
dose: 1.0 mg/kg/injection, vehicle: carboxymethylcellulose (CMC)
  T/C: 76 % of control
dose: 2.0 mg/kg/injection, vehicle: carboxymethylcellulose (CMC)
  T/C: 67 % of control
dose: 4.0 mg/kg/injection, vehicle: carboxymethylcellulose (CMC)
  T/C: 41 % of control

## CCn1cnc2c(SC)nc(N)nc21
[6]
  T/C: 76 % of control
[7]
  T/C: 93 % of control
[8]
  T/C: 95 % of control
[3]
  T/C: 108 % of control
dose: 340.0 mg/kg/injection, vehicle: saline
  T/C: 57 % of control

## O=P(c1ccccc1)(N1CC1)N1CC1
dose: 3.13 mg/kg/injection, vehicle: saline
  T/C: 106 % of control
dose: 6.25 mg/kg/injection, vehicle: saline
  T/C: 93 % of control
dose: 12.5 mg/kg/injection, vehicle: saline
  T/C: 105 % of control
[7]
  T/C: 68 % of control and 71 % of control

## CC[C@H]1CN2CCc3cc(OC)c(OC)cc3[C@@H]2C[C@@H]1C[C@H]1NCCc2cc(OC)c(OC)cc21
dose: 1.0 mg/kg/injection, vehicle: saline
  T/C: 82 % of control
dose: 2.0 mg/kg/injection, vehicle: saline
  T/C: 82 % of control

## CN(C)CCCN1c2ccccc2Sc2ccc(C(F)(F)F)cc21
[6]
  T/C: 90 % of control
[7]
  T/C: 90 % of control

## CN(C)[C@@H]1C(=O)C(C(=O)NCN(CCCl)CCCl)=C(O)[C@@]2(O)C(=O)C3=C(O)c4c(O)cccc4[C@@](C)(O)[C@H]3C[C@@H]12
dose: 8.9 mg/kg/injection, vehicle: saline
  T/C: 105 % of control
dose: 13.0 mg/kg/injection, vehicle: saline
  T/C: 84 % of control
dose: 20.0 mg/kg/injection, vehicle: saline
  T/C: 94 % of control
dose: 30.0 mg/kg/injection, vehicle: saline
  T/C: 52 % of control and 69 % of control
dose: 44.0 mg/kg/injection, vehicle: saline
  T/C: 53 % of control

## C=CC(=O)NCNC(=O)C=C
dose: 37.5 mg/kg/injection, vehicle: saline
  T/C: 66 % of control
[1]
  T/C: 65 % of control

## Cn1cnc([N+](=O)[O-])c1Sc1nc(N)nc2c1ncn2C1OC(CO)C(O)C1O (centres undefined)
dose: 7.5 mg/kg/injection, vehicle: carboxymethylcellulose (CMC)
  T/C: 96 % of control

## [I][Hg][CH2]C1COCC([CH2][Hg][I])O1.[I][Hg][CH2]C1COCC([CH2][Hg][I])O1 (centres undefined)
dose: 6.0 mg/kg/injection, vehicle: saline
  T/C: 83 % of control
[6]
  T/C: 52 % of control

## Clc1ncnc2c1ncn2C1CCCO1 (centres undefined)
dose: 37.0 mg/kg/injection, vehicle: saline
  T/C: 77 % of control and 80 % of control
dose: 450.0 mg/kg/injection, vehicle: saline
  T/C: 69 % of control

## CC(C)([NH-])CO.CC(C)([NH-])CO.[Cl][Cd][Cl]
dose: 2.5 mg/kg/injection, vehicle: carboxymethylcellulose (CMC)
  T/C: 88 % of control
dose: 5.0 mg/kg/injection, vehicle: carboxymethylcellulose (CMC)
  T/C: 57 % of control
dose: 10.0 mg/kg/injection, vehicle: carboxymethylcellulose (CMC)
  T/C: 25 % of control

## c1ccc(CSc2ncnc3nc[nH]c23)nc1
[8]
  T/C: 76 % of control and 81 % of control
[3]
  T/C: 29 % of control and 39 % of control
